Entries after “also recorded” stand apart in the source; their conditions may differ.
Key:
GPX4 = molecular target: T1, GPX4 (Homo sapiens, UniProt P36969, U73C); assay: Surface plasmon resonance (SPR); type: binding; conditions: Table 1
T1 sequence (P36969 33-197 U73C): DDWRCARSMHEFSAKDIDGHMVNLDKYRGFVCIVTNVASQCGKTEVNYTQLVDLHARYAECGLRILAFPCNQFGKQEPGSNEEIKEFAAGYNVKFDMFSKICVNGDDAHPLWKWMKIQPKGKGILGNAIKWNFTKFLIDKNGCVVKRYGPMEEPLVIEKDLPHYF
Source text: These x-ray structures enabled further optimization of current inhibitors and the design of novel inhibitors targeting various binding sites on GPX4. Therefore, we applied a strategy of computer-facilitated design, based on MD simulation (Desmond) and Glide docking (Schrödinger Suite), and experimental high-throughput screening of a lead-optimized compound library of 10,000 compounds (FIGS. 6A-6E). All candidates were first evaluated by thermal denaturation assay and microscale thermophoresis (MST) to validate binding to GPX4 (Table 1). Surface plasmon resonance (SPR) and isothermal titration calorimetry (ITC) were then applied to precisely measure their binding kinetics and affinities, while ^1H-^15N heteronuclear single-quantum coherence (HSQC) NMR spectroscopy informed us of binding sites. We optimized two GPX4-specific activity assays to examine enzymatic inhibitory effects of hit compounds—LC-MS-based substrate/product monitoring and an NADPH-coupled assay. […] Some L880 analogues were also synthesized and tested (Table 2).

GPX4^U46C [1] = molecular target: T2, GPX4^U46C (Homo sapiens, UniProt P36969, U73C); assay: Intact protein MALDI MS analysis, GPX4^U46C; type: binding; conditions: protein preincubated with excess inhibitor
T2 construct: His6 (N, cleaved yes); made in house; host or cells: E. coli BL21-Gold (DE3), M9 minimal medium with 15NH4Cl
T2 sequence (P36969 33-197 U73C): T1 sequence (P36969 33-197 U73C)
Method: GPX4^U46C or GPX4^AllCys(−)-A46C protein was pre-incubated with DMSO control or the inhibitor to be tested prior to MALDI MS analysis: 50 μM GPX4 protein was incubated with 500 μM inhibitors in FPLC buffer (100 mM Tris pH 8.0, 300 mM NaCl, and 3 mM TCEP) with 5% DMSO at RT for 1 hour before transferring to 4° C. overnight.
1 μl of the ligand-free protein (pre-incubated with DMSO) or protein-inhibitor complex (pre-incubated with the inhibitor to be tested) was mixed with 9 μl of 10 mg/ml sinapinic acid in the matrix solution (70:30 water/acetonitrile, with 0.1% TFA). 1.0 μl of the final mix was deposited onto the target carrier and allowed to air dry. MALDI spectrum was recorded using Bruker ultrafleXtreme MALDI-TOF instrument. The range of m/z detection and suppression was adjusted to accommodate the molecular weight of target protein. 2000 Hz and 50% intensity was applied for the laser setting. For each sample, five cumulative spectra were collected and the sum was recorded for analysis. All MALDI spectra of protein-inhibitor complex were compared with ligand-free protein to determine the mass shift. Mass shifts were aligned with the mass of potential staying group of each inhibitor to conclude covalent binding.

GPX4^U46C [2] = molecular target: T2, GPX4^U46C; assay: 1H,15N-HSQC-NMR of 15N-labeled GPX4^U46C; type: binding
Method: Uniformly ^15N-labeled GPX4^U46C protein with N-terminal His6 tag was prepared. The GPX4^U46C construct was expressed in E. coli BL21-Gold (DE3) cells (Stratagene) growing at 37° C. in M9 minimal medium supplemented with […] ampicillin, 2 mM MgSO4, […] CaCl2, 1× trace metals, 1×RPMI 1640 vitamin stock (Sigma-Aldrich, #R7256), […] biotin, […] thiamine hydrochloride, 4 g/L glucose, and 3 g/L ^15NH4Cl as the sole nitrogen source. The following induction, lysis, and protein purification was the same as for the non-isotope-labeled His-tagged GPX4^U46C described above, except the N-terminal His6 tag was removed by adding 5 U/mg thrombin before FPLC purification. The thrombin reaction was after a buffer exchange to remove imidazole, which otherwise would inhibit thrombin, and was allowed to proceed overnight at 4° C.
Then the protein solution was concentrated to 50 μM before testing. For HSQC of GPX4 with other inhibitors, 50 μM ^15N-labeled GPX4 was preincubated with 800 μM inhibitor to be tested for […] at room temperature in buffer (100 mM MES, 5 mM TCEP, pH 6.5). D20 (10%) was then added for the field frequency lock. The ^1H-^15N HSQC spectra were collected on Bruker Avance III 500 Ascend (500 MHz) spectrometers (Columbia University) at 298K. The ^1H carrier frequency was positioned at the water resonance. The ^15N carrier frequency was positioned at 115 ppm. The spectral width in the ^1H dimension was 7,500 Hz and the width in the ^15N dimension was 1,824.6 Hz. Suppression of water signal was accomplished using the WATERGATE sequence. Heteronuclear decoupling was accomplished using GARP decoupling scheme.

cancer cells = conditions: cited from earlier work
GPX4^U46C [3] = molecular target: T2, GPX4^U46C; assay: Co-crystal structure of GPX4^U46C with inhibitor; type: binding
Method: GPX4^U46C was pre-incubated with the covalent inhibitors before crystallization using the following specifically optimized condition.
RSL3 and ML162 condition: 50 μM GPX4^U46C incubated with 150 μM RSL3 or ML162 in the reaction buffer (20 mM Tris pH 9.0, 100 mM NaCl, 3 mM TCEP, 1.5% DMSO) at 15° C. for 1 hour before transferring to 4° C. overnight. CDS9 condition: 25 μM GPX4^U46C incubated with 2 mM CDS9 in the reaction buffer (100 mM Tris pH 9.0, 300 mM NaCl, 1 mM TCEP, 2% DMSO) at 37° C. for 2 hours before transferring to 4° C. overnight. TMT10 condition: 25 μM GPX4^U46C incubated with 2 mM TMT10 in the reaction buffer (100 mM Tris pH 9.0, 300 mM NaCl, 2% glycerol, 2% DMSO) at 37° C. for 4 hours before transferring to 4° C. overnight. MAC-5576 condition: 50 μM GPX4^U46C protein was incubated with 500 μM MAC-5576 in the reaction buffer (100 mM Tris pH 9.0, 300 mM NaCl, and 3 mM TCEP, 5% DMSO) at RT for 1 hour before transferring to 4° C. overnight.
After confirmation of covalent binding using intact protein MALDI MS analysis, the protein-inhibitor complex were exchanged into crystallization buffer (10 mM Tris pH 8.0, 5 mM TCEP) and concentrated to 5 mg/ml.

SPR (GPX4) | Binding site (GPX4^U46C [2]; Table 1) | HSQC assay (GPX4^U46C [2]; Table 1) | Compound | covalent binding to GPX4^U46C by intact protein MALDI MS (GPX4^U46C [1]) | binding mode by HSQC NMR (GPX4^U46C [2]) | potency to induce ferroptosis (cancer cells) | binding site in co-crystal structure (GPX4^U46C [3])
positive | Allosteric Site 1 | positive | COc1cccc2[nH]c(C(=O)n3ccnc3)cc12 [LOC1886] | covalently bound | non-covalently binds to the RSL3-binding site; also recorded: strongly interacted with the cys66 binding site |  | 
 |  |  | COC(=O)c1ccc([C@@H]2c3[nH]c4ccccc4c3C[C@@H](C(=O)OC)N2C(=O)CCl)cc1 [RSL3, (1S, 3R)-RSL3] | 1:1 covalent binding | global conformational change induced by binding of RSL3 to cys66 | nanomolar potencies | bind to cys66

From patent US20230167058A1, “GPX4 COMPOUNDS AND COMPOSITIONS AND METHODS OF TREATMENT USING SAME” (THE TRUSTEES OF COLUMBIA UNIVERSITY IN THE CITY OF NEW YORK, priority 2020, published 2023)
